The source made the active and inactive calls. No rule for the calls is given here.
Tested on: rodent carcinogenicity bioassays, tumor incidence
Assay: CCRIS carcinogenicity studies
Method in brief: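 NCI-built, expert-reviewed records of carcinogenicity and related test outcomes (mutagenicity, tumor promotion/inhibition) compiled from published and report sources, historical span 1985-2011, not updated.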

C[C@](N)(Cc1ccc(O)c(O)c1)C(=O)O
carcinogen call (Species: MOUSE, Strain/Sex: B6C3F1/FEMALE, Route: ORAL, Dose: 0, 6300, 12500 PPM IN FEED FOR 103 WK (STUDY DURATION: 104 WK), Dose: 0, 6300, 12500 PPM IN FEED FOR 103 WK (STUDY DURATION: 104 WK)): inactive; negative | carcinogen call (Species: MOUSE, Strain/Sex: B6C3F1/MALE, Route: ORAL, Dose: 0, 6300, 12500 PPM IN FEED FOR 103 WK (STUDY DURATION: 104 WK), Dose: 0, 6300, 12500 PPM IN FEED FOR 103 WK (STUDY DURATION: 104 WK), Tumor Site: Type of Lesion: KIDNEY: RENAL TUBULAR CELL ADENOMA OR ADENOCARCINOMA): equivocal | carcinogen call (Species: RAT, Strain/Sex: F344/FEMALE, Route: ORAL, Dose: 0, 3100, 6300 PPM IN FEED FOR 103 WK (STUDY DURATION: 104 WK), Dose: 0, 3100, 6300 PPM IN FEED FOR 103 WK (STUDY DURATION: 104 WK)): inactive; negative | carcinogen call (Species: RAT, Strain/Sex: F344/MALE, Route: ORAL, Dose: 0, 3100, 6300 PPM IN FEED FOR 103 WK (STUDY DURATION: 104 WK), Dose: 0, 3100, 6300 PPM IN FEED FOR 103 WK (STUDY DURATION: 104 WK)): inactive; negative

Nc1ccc(Cl)c(N)c1
carcinogen call (Species: MOUSE, Strain/Sex: B6C3F1/FEMALE, Route: ORAL, Dose: 0, 0.7, 1.4% OF DIET, TWA, Dose: 0, 0.7, 1.4% OF DIET, TWA, Tumor Site: Type of Lesion: LIVER: HEPATOCELLULAR ADENOMA OR HEPATOCELLULAR CARCINOMA): active; positive | carcinogen call (Species: MOUSE, Strain/Sex: B6C3F1/MALE, Route: ORAL, Dose: 0, 0.7, 1.4% OF DIET, TWA, Dose: 0, 0.7, 1.4% OF DIET, TWA): inactive; negative | carcinogen call (Species: RAT, Strain/Sex: F344/FEMALE, Route: ORAL, Dose: 0, 0.2, 0.4% OF DIET, Dose: 0, 0.2, 0.4% OF DIET): inactive; negative | carcinogen call (Species: RAT, Strain/Sex: F344/MALE, Route: ORAL, Dose: 0, 0.2, 0.4% OF DIET, Dose: 0, 0.2, 0.4% OF DIET, Tumor Site: Type of Lesion: ADRENAL GLAND: PHEOCHROMOCYTOMA): active; positive

[Ga]#[As]
carcinogen call (Species: MOUSE, Strain/Sex: B6C3F1/FEMALE, Route: INHALATION, Dose: 0, 0.1, 0.5, 1 MG/M3 6 HR/D 5D/WK FOR 106 WK (STUDY DURATION: 106 WK), Dose: 0, 0.1, 0.5, 1 MG/M3 6 HR/D 5D/WK FOR 106 WK (STUDY DURATION: 106 WK)): inactive; negative | carcinogen call (Species: MOUSE, Strain/Sex: B6C3F1/MALE, Route: INHALATION, Dose: 0, 0.1, 0.5, 1 MG/M3 6 HR/D 5D/WK FOR 105 WK (STUDY DURATION: 105 WK), Dose: 0, 0.1, 0.5, 1 MG/M3 6 HR/D 5D/WK FOR 105 WK (STUDY DURATION: 105 WK)): inactive; negative | carcinogen call (Species: MOUSE, Strain/Sex: ICR/MALE, Route: INTRAPERITONEAL, Dose: 0, 48, 480 MG/KG AS GALLIUM SUSPENDED IN OLIVE OIL ONCE (STUDY DURATION: 18 MO), Dose: 0, 48, 480 MG/KG AS GALLIUM SUSPENDED IN OLIVE OIL ONCE (STUDY DURATION: 18 MO)): inactive; negative | carcinogen call (Species: MOUSE, Strain/Sex: ICR/MALE, Route: SUBCUTANEOUS, Dose: 0, 48, 480 MG/KG AS GALLIUM SUSPENDED IN OLIVE OIL ONCE (STUDY DURATION: 18 MO), Dose: 0, 48, 480 MG/KG AS GALLIUM SUSPENDED IN OLIVE OIL ONCE (STUDY DURATION: 18 MO)): inactive; negative | carcinogen call (Species: RAT, Strain/Sex: F344/N/FEMALE, Route: INHALATION, Dose: 0, 0.01, 0.1, 1 MG/M3 6 HR/D 5D/WK FOR 105 WK (STUDY DURATION: 105 WK), Dose: 0, 0.01, 0.1, 1 MG/M3 6 HR/D 5D/WK FOR 105 WK (STUDY DURATION: 105 WK), Tumor Site: Type of Lesion: LUNG: ALVEOLAR/BRONCHIOLAR ADENOMA): active; positive | carcinogen call (Species: RAT, Strain/Sex: F344/N/MALE, Route: INHALATION, Dose: 0, 0.01, 0.1, 1 MG/M3 6 HR/D 5D/WK FOR 105 WK (STUDY DURATION: 105 WK), Dose: 0, 0.01, 0.1, 1 MG/M3 6 HR/D 5D/WK FOR 105 WK (STUDY DURATION: 105 WK)): inactive; negative

CC1CN(N=O)CC(C)N1C(=O)c1ccccc1 (stereo not drawn)
carcinogen call (Species: RAT, Strain/Sex: F344/FEMALE, Route: ORAL, Dose: 0, 172 MG/L IN DRINKING WATER 5 D/WK FOR 50 WK, STUDY DURATION: 120-130 WK, Dose: 0, 172 MG/L IN DRINKING WATER 5 D/WK FOR 50 WK, STUDY DURATION: 120-130 WK, Tumor Site: Type of Lesion: FORESTOMACH: PAPILLOMA OR CARCINOMA): active; positive

CC(C)[N+](=O)[O-]
carcinogen call (Species: RAT, Route: INHALATION, Tumor Site: Type of Lesion: LIVER): active; positive

Brc1c(Br)c(Br)c(Oc2c(Br)c(Br)c(Br)c(Br)c2Br)c(Br)c1Br
carcinogen call (Species: MOUSE, Strain/Sex: B6C3F1/FEMALE, Route: ORAL, Dose: 0, 25000, 50000 PPM IN DIET FOR 103 WK (STUDY DURATION: 103 WK), Dose: 0, 25000, 50000 PPM IN DIET FOR 103 WK (STUDY DURATION: 103 WK)): inactive; negative | carcinogen call (Species: MOUSE, Strain/Sex: B6C3F1/MALE, Route: ORAL, Dose: 0, 25000, 50000 PPM IN DIET FOR 103 WK (STUDY DURATION: 103 WK), Dose: 0, 25000, 50000 PPM IN DIET FOR 103 WK (STUDY DURATION: 103 WK), Tumor Site: Type of Lesion: LIVER: HEPATOCELLULAR ADENOMA OR CARCINOMA, THYROID GLAND: FOLLICULAR CELL ADENOMA OR CARCINOMA): equivocal | carcinogen call (Species: RAT, Strain/Sex: F344/FEMALE, Route: ORAL, Dose: 0, 25000, 50000 PPM IN DIET FOR 103 WK (STUDY DURATION: 103 WK), Dose: 0, 25000, 50000 PPM IN DIET FOR 103 WK (STUDY DURATION: 103 WK), Tumor Site: Type of Lesion: LIVER: NEOPLASTIC NODULE, NEOPLASTIC NODULE OR HEPATOCELLULAR CARCINOMA): active; positive | carcinogen call (Species: RAT, Strain/Sex: F344/MALE, Route: ORAL, Dose: 0, 25000, 50000 PPM IN DIET FOR 103 WK (STUDY DURATION: 103 WK), Dose: 0, 25000, 50000 PPM IN DIET FOR 103 WK (STUDY DURATION: 103 WK), Tumor Site: Type of Lesion: LIVER: NEOPLASTIC NODULE, NEOPLASTIC NODULE OR HEPATOCELLULAR CARCINOMA): active; positive

ClC1=CC(c2cc(Cl)ccc2Cl)=C(Cl)[C@H]2O[C@@H]12
carcinogen call (Species: MOUSE, Strain/Sex: STRAIN-A/FEMALE, Route: INTRAPERITONEAL, Dose: 0, 0.1, 0.2 UMOL/UL OF DMSO 5, 10 AND 20 µL GIVEN ON DAYS 4, 8 AND 15 AFTER BIRTH, RESPECTIVELY (STUDY DURATION: 28 WK), Dose: 0, 0.1, 0.2 UMOL/UL OF DMSO 5, 10 AND 20 µL GIVEN ON DAYS 4, 8 AND 15 AFTER BIRTH, RESPECTIVELY (STUDY DURATION: 28 WK)): inactive; negative | carcinogen call (Species: MOUSE, Strain/Sex: STRAIN-A/MALE, Route: INTRAPERITONEAL, Dose: 0, 0.1, 0.2 UMOL/UL OF DMSO 5, 10 AND 20 µL GIVEN ON DAYS 4, 8 AND 15 AFTER BIRTH, RESPECTIVELY (STUDY DURATION: 28 WK), Dose: 0, 0.1, 0.2 UMOL/UL OF DMSO 5, 10 AND 20 µL GIVEN ON DAYS 4, 8 AND 15 AFTER BIRTH, RESPECTIVELY (STUDY DURATION: 28 WK)): inactive; negative

CCN(CC)C(=O)/C(Cl)=C(\C)OP(=O)(OC)OC
carcinogen call (Species: MOUSE, Strain/Sex: B6C3F1/FEMALE, Route: ORAL, Dose: 0, 80, 160 PPM IN DIET, Dose: 0, 80, 160 PPM IN DIET): inactive; negative | carcinogen call (Species: MOUSE, Strain/Sex: B6C3F1/MALE, Route: ORAL, Dose: 0, 80, 160 PPM IN DIET, Dose: 0, 80, 160 PPM IN DIET): inactive; negative | carcinogen call (Species: RAT, Strain/Sex: OSBORNE-MENDEL/FEMALE, Route: ORAL, Dose: 0, 80, 160 PPM IN DIET FOR 80 WK (STUDY DURATION: 111 WK), Dose: 0, 80, 160 PPM IN DIET FOR 80 WK (STUDY DURATION: 111 WK), Tumor Site: Type of Lesion: THYROID GLAND: C-CELL ADENOMA OR CARCINOMA): equivocal | carcinogen call (Species: RAT, Strain/Sex: OSBORNE-MENDEL/MALE, Route: ORAL, Dose: 0, 80, 160 PPM IN DIET FOR 80 WK (STUDY DURATION: 111 WK), Dose: 0, 80, 160 PPM IN DIET FOR 80 WK (STUDY DURATION: 111 WK), Tumor Site: Type of Lesion: SPLEEN: HEMANGIOMA OR HEMANGIOSARCOMA): equivocal

C=CSCCC(N)C(=O)O (stereo not drawn)
carcinogen call (Species: RAT, Strain/Sex: F344/MALE, Route: INTRAPERITONEAL, Dose: 0, 50-100 MG/KG 5 D/WK FOR 12 WK, STUDY DURATION: 25 MO, Dose: 0, 50-100 MG/KG 5 D/WK FOR 12 WK, STUDY DURATION: 25 MO, Tumor Site: Type of Lesion: LIVER: HEPATOCELLULAR CARCINOMA): active; positive | carcinogen call (Species: RAT, Strain/Sex: F344/MALE, Route: ORAL, Dose: 0, 0.05% IN METHYL-DEFICIENT DIET FOR 20 MO, Tumor Site: Type of Lesion: LIVER: HEPATOCELLULAR CARCINOMA): active; positive
